Results reported in US8912144B2, “Method for treating stroke via administration of NEP1-40 and inosine” (Children's Medical Center Corporation, priority 2003, dated 2014).

System: corticospinal neurons (CSNs/CSMNs)
Assay: Laser-capture microdissection and Illumina microarray gene expression in corticospinal neurons contralateral to stroke
Format: in vivo, rat
Experimental: In a separate group of animals (n=20), layer V pyramidal cells of the sensorimotor cortex were retrogradely labeled by injecting Alexa-Fluor-488-conjugated cholera toxin B subunit (CTB; 300 U/μl in sterile saline) into the cervical spinal cord. For this, animals were anesthetized with a combination of ketamine and Domitor (medetomidine) and a laminectomy was performed at the cervical level of the spinal cord (C2-C4). CTB was stereotaxically delivered into four sites lateral to the corticospinal tract. Injections (1.3 μl) were spaced 1 mm apart on the rostro-caudal axis, and were made 0.5 mm to the left and right of the midline. After allowing two weeks for transport of the tracer, we performed either sham surgery with no treatment (n=6) or stroke surgery combined with saline (n=3) or inosine (n=4) treatment as described above. Seven days later, animals were decapitated under transient gas anesthesia, brains were removed and rinsed in cold RPMI medium, and a tissue block containing the sensorimotor cortex was dissected and placed in OCT Tissue Tek Medium (Sakura Finetek USA Inc., CA) on dry ice within five minutes of death. Ten μm sections were cut onto precleaned Gold Seal RITE-ON glass slides (Gold Seal Prod-ucts, Portsmouth, N.H.), placed on dry ice, and rapidly stored at −80° C.
Slide-mounted sections were thawed and dehydrated in RNAse-free ethanol gradients and xylene. Retro-gradely labeled, fluorescent cortical pyramidal cells in the undamaged hemisphere were individually captured using the Arcturus VERITAS system. ≧500 cells were collected from each animal and stored in Arcturus extraction buffer at −80° C. Total RNA was extracted from cells using the Micro-to-Midi TotalRNA Purification System (Invitrogen, Carlsbad Calif.) and double-amplified using the TargetAmp 2-Round Aminoallyl-aRNA Amplification kit 1.0 (Epicentre, Madison, Wis.). Amplified RNA was checked for average fragment length using the Agilent RNA 6000 Nano LabChip kit (Agilent Technologies, Santa Clara, Calif.) and then biotinylated and hybridized (1 μg) on Illumina RatRef-12 Expression BeadChip arrays (Illumina, San Diego Calif.), querying the expression of >22,000 RefSeq-curated rat transcripts. Results were obtained from a total of 15 samples representing 6 untreated controls, 4 animals with stroke treated with saline and 5 animals with stroke treated with inosine. Slides were processed and scanned with Illumina BeadStation platform according to the manufacturer protocol.
Raw data was analyzed using Bioconductor packages (www.bioconductor.org, (Gentleman et al., 2004)). Low level quality-control analysis was performed using inter-array Pearson correlation and clustering based on variance. Two arrays (1 saline and 1 inosine-treated) were outliers and were excluded from the analysis. Data was normalized using quantile normalization, and analysis of differential expression was performed using a linear model fitting (LIMMA package, (Smyth, 2005). Differentially expressed genes were classified according to gene ontology using Bioconductor packages and online tools (DAVID, http://david.abcc.ncifcrf.gov/). Pathway analysis was carried out using Ingenuity Pathway Analysis (Ingenuity Systems, www.ingenuity.com).

In the case of `OC[C@H]1O[C@@H](n2cnc3c(O)ncnc32)[C@H](O)[C@@H]1O` [inosine], the “Signal Intensity, Spnb4” value (ILMN_66300, inosine after stroke) is reported as 1147, the “Fold-Induction Stroke, ino vs. cntrl, Bbp” value (ILMN_66323) is reported as 0.58 and the “Signal Intensity, Bbp” value (ILMN_66323, inosine after stroke) is reported as 1150. For the same compound, the “Fold-Induction Stroke, ino vs. cntrl, LOC305122” value (ILMN_66350) was 0.58, the “Signal Intensity, LOC305122” value (ILMN_66350, inosine after stroke) was 771 and the “Fold-Induction Stroke, ino vs. cntrl, Plekhb1” value (ILMN_66651) was 0.62. The “Signal Intensity, Plekhb1” value (ILMN_66651, inosine after stroke) was 1687, the “Fold-Induction Stroke, ino vs. cntrl, Ppp1r11” value (ILMN_66809) was 0.90 and the “Signal Intensity, Ppp1r11” value (ILMN_66809, inosine after stroke) was 865. The “Fold-Induction Stroke, ino vs. cntrl, LOC501538” value (ILMN_66820) was 0.64, the “Signal Intensity, LOC501538” value (ILMN_66820, inosine after stroke) was 1132 and the “Fold-Induction Stroke, ino vs. cntrl, Slc25a11” value (ILMN_66823) was 0.65. For the same compound, the “Signal Intensity, Slc25a11” value (ILMN_66823, inosine after stroke) was 263, the “Fold-Induction Stroke, ino vs. cntrl, Optn” value (ILMN_67016) was 0.69 and the “Signal Intensity, Optn” value (ILMN_67016, inosine after stroke) was 360. For the same compound, the “Fold-Induction Stroke, ino vs. cntrl, Lxn” value (ILMN_67020) was 0.72, the “Signal Intensity, Lxn” value (ILMN_67020, inosine after stroke) was 433 and the “Fold-Induction Stroke, ino vs. cntrl, Psmc5” value (ILMN_67036) was 0.54. For the same compound, the “Signal Intensity, Psmc5” value (ILMN_67036, inosine after stroke) was 1620, the “Fold-Induction Stroke, ino vs. cntrl, MGC72992” value (ILMN_67222) was 0.63 and the “Signal Intensity, MGC72992” value (ILMN_67222, inosine after stroke) was 359. The “Fold-Induction Stroke, ino vs. cntrl, Ywhaq” value (ILMN_67273) was 0.66, the “Signal Intensity, Ywhaq” value (ILMN_67273, inosine after stroke) was 2844 and the “Fold-Induction Stroke, ino vs. cntrl, LOC498696” value (ILMN_67275) was 0.51. For the same compound, the “Signal Intensity, LOC498696” value (ILMN_67275, inosine after stroke) was 514, the “Fold-induction CSMNs: Cd63” value (ILMN_67382, over and above inosine's effect of decreasing stroke-induced changes) was 2.10 fold and the “Fold-Induction Stroke, ino vs. cntrl, Ggcx” value (ILMN_67463) was 0.93. For the same compound, the “Signal Intensity, Ggcx” value (ILMN_67463, inosine after stroke) was 526, the “Fold-Induction Stroke, ino vs. cntrl, Kif3b” value (ILMN_67572) was 0.79 and the “Signal Intensity, Kif3b” value (ILMN_67572, inosine after stroke) was 642. The “Fold-Induction Stroke, ino vs. cntrl, Zfp422” value (ILMN_67578) was 0.99, the “Signal Intensity, Zfp422” value (ILMN_67578, inosine after stroke) was 557 and the “Fold-induction CSMNs: Ms4a6b” value (ILMN_67686, over and above inosine's effect of decreasing stroke-induced changes) was 2.03 fold. The “Fold-Induction Stroke, ino vs. cntrl, Dcamkl1” value (ILMN_67724) was 0.59, the “Signal Intensity, Dcamkl1” value (ILMN_67724, inosine after stroke) was 4398 and the “Fold-Induction Stroke, ino vs. cntrl, LOC501601” value (ILMN_67885) was 0.54. The “Signal Intensity, LOC501601” value (ILMN_67885, inosine after stroke) was 791, the “Fold-Induction Stroke, ino vs. cntrl, Ca2” value (ILMN_67903) was 0.47 and the “Signal Intensity, Ca2” value (ILMN_67903, inosine after stroke) was 1008. For the same compound, the “Fold-Induction Stroke, ino vs. cntrl, LOC287622” value (ILMN_67961) was 0.69, the “Signal Intensity, LOC287622” value (ILMN_67961, inosine after stroke) was 400 and the “Fold-induction CSMNs: Gfap” value (ILMN_68224, over and above inosine's effect of decreasing stroke-induced changes) was 2.46 fold. The “Fold-Induction Stroke, ino vs. cntrl, Lkap” value (ILMN_68337) was 0.64, the “Signal Intensity, Lkap” value (ILMN_68337, inosine after stroke) was 758 and the “Fold-Induction Stroke, ino vs. cntrl, Gsn” value (ILMN_68511) was 0.64. For the same compound, the “Signal Intensity, Gsn” value (ILMN_68511, inosine after stroke) was 2157, the “Fold-Induction Stroke, ino vs. cntrl, Flot2” value (ILMN_68584) was 0.70 and the “Signal Intensity, Flot2” value (ILMN_68584, inosine after stroke) was 667. The “Fold-Induction Stroke, ino vs. cntrl, Rab40b” value (ILMN_68736) was 0.63, the “Signal Intensity, Rab40b” value (ILMN_68736, inosine after stroke) was 476 and the “Fold-Induction Stroke, ino vs. cntrl, Dhcr24” value (ILMN_68892) was 0.53. For the same compound, the “Signal Intensity, Dhcr24” value (ILMN_68892, inosine after stroke) was 1032, the “Fold-Induction Stroke, ino vs. cntrl, Sfxn3” value (ILMN_68903) was 0.57 and the “Signal Intensity, Sfxn3” value (ILMN_68903, inosine after stroke) was 261. For the same compound, the “Fold-Induction Stroke, ino vs. cntrl, Tde2” value (ILMN_68952) was 0.53, the “Signal Intensity, Tde2” value (ILMN_68952, inosine after stroke) was 545 and the “Fold-Induction Stroke, ino vs. cntrl, RGD1309158” value (ILMN_69031) was 0.52. The “Signal Intensity, RGD1309158” value (ILMN_69031, inosine after stroke) was 630, the “Fold-Induction Stroke, ino vs. cntrl, LOC289036” value (ILMN_69224) was 0.72 and the “Signal Intensity, LOC289036” value (ILMN_69224, inosine after stroke) was 1532. For the same compound, the “Fold-induction CSMNs: Arpc1b” value (ILMN_69642, over and above inosine's effect of decreasing stroke-induced changes) was 2.31 fold, the “Fold-Induction Stroke, ino vs. cntrl, Ubl3” value (ILMN_69708) was 0.83 and the “Signal Intensity, Ubl3” value (ILMN_69708, inosine after stroke) was 479. For the same compound, the “Fold-Induction, complement cascade gene Bf (B-factor, properdin)” value (ILMN_69719, LCM-captured CSMNs contralateral a stroke) was 2.73 fold, the “Fold-Induction Stroke, ino vs. cntrl, LOC296126” value (ILMN_69931) was 0.64 and the “Signal Intensity, LOC296126” value (ILMN_69931, inosine after stroke) was 332. The “Fold-Induction Stroke, ino vs. cntrl, LOC315463” value (ILMN_69949) was 0.54, the “Signal Intensity, LOC315463” value (ILMN_69949, inosine after stroke) was 709 and the “Fold-Induction Stroke, ino vs. cntrl, Zfp216” value (ILMN_70270) was 0.66. For the same compound, the “Signal Intensity, Zfp216” value (ILMN_70270, inosine after stroke) was 888, the “Fold-induction CSMNs: A2m” value (ILMN_70335, over and above inosine's effect of decreasing stroke-induced changes) was 4.10 fold and the “Fold-Induction Stroke, ino vs. cntrl, LOC366188” value (ILMN_70369) was 0.85. For the same compound, the “Signal Intensity, LOC366188” value (ILMN_70369, inosine after stroke) was 1100.
